For data set [1], the target named is T1, recombinant human MMP-9 trimers (Homo sapiens, UniProt P14780).
T1 construct: made in house; host or cells: Sf9 insect cells
As to the kind of experiment: Fluorogenic peptide (OmniMMP) degradation assay, recombinant MMP-9 trimers. Format: biochemical. Conditions: recombinant human MMP-9 (Sf9) tri. As for the experimental part:
(§1) Compounds 5 and 7 were synthesized as previously reported. Full-length human proMMP-9 was produced by recombinant expression in Sf9 insect cells and purified by gelatin-Sepharose chromatography as previously described. Stable full-length proMMP-9 monomers and trimers were separated by glycerol gradient ultracentrifugation as previously described. ProMMP-9 mixture and the separated monomers and trimers were activated by incubation with the catalytic domain of MMP-3 (cat. No. 444217, Merck Millipore, Darmstadt, Germany) as previously described. Activation of proMMP-9 was confirmed by a band shift of ±10 kDa, corresponding to the removal of the auto-inhibitory propeptide domain and by detection of gelatinolytic activity with a previously described gelatin degradation assay. MMP-9 monomers and trimers purified from human neutrophils were purchased (Cat. No. 444,231 and 444232, Sigma-Aldrich, St. Louis, MO, USA). Examples of sample purities and activations can be found in Supplementary Figure S1. Recombinant human proMMP-2 (CHO cell-derived), proMMP-3 (NS0 cell-derived), proMMP-7 (NS0 cell-derived) and proMMP-8 (NS0 cell-derived) were purchased from R & D systems (Minneapolis, MN, USA), dissolved in assay buffer (150 mM NaCl, 5 mM CaCl2, 0.01% Tween-20, 50 mM Tris, pH 7.4) to a concentration of 100 µg/mL and activated by incubation with 1 mM p-aminophenylmercuric acetate for, respectively, 1h, 6h, 2h and 1h. Activation of MMPs was confirmed by a band shift of approximately 10 kDa, corresponding to the removal of the propeptide domain. MMP-14/MT1-MMP (NS0 cell-derived) was also purchased from R & D systems (Minneapolis, MN, USA) and activated by incubation with recombinant human furin (cat. No. 1503-SE-010, R & D systems, Minneapolis, MO, USA) in activation buffer (50 mM Tris, 1 mM CaCl2, 0.5% Brij-35, pH 9) for 1.5 h and activity was tested in assay buffer (50 mM Tris, 3 mM CaCl2, 1 µM ZnCl2, pH 8.5). Active human neutrophil elastase (NE) was purchased from Abcam (Cambridge, UK) and for activity assays of NE the assay buffer was replaced by 200 mM Tris, pH 8.8. ADAM17/TACE (Sf 21 (baculovirus)-derived, R & D systems, Minneapolis, MO, USA) was diluted and evaluated in 25 mM Tris, 2.5 μM ZnCl2, 0.005% Brij-35, pH 9.0. All stocks of the compounds were evaluated for the presence of endotoxin using the EndoZyme II assay (Hyglos bioMérieux, Bernried am Starnberger See, Germany). Endotoxin levels in all concentrated stocks (2.5 mg/mL) were below the accepted limit of 0.5 EU/mL.
To determine the inhibition of gelatinolytic activity, we used a previously optimized gelatin degradation assay. Activated MMP-9, activated MMP-2, neutrophil elastase or supernatants of stimulated neutrophils, were incubated with different concentrations of inhibitors and incubated for 30 min at 37 °C. Next, dye-quenched gelatin (DQ™-gelatin, Invitrogen, Carlsbad, CA, USA) was added at a final concentration of 2.5 µg/mL and the increase in fluorescence over time was measured with the CLARIOstar microplate reader (BMG Labtech, Ortenberg, Germany). For other MMPs, the OmniMMP substrate peptide (Mca-PLGL-Dpa-AR-NH2, cat. no. BML-P126-0001, Enzo Life Sciences, Farmingdale, NY, USA) was used at a final concentration of 2.5 µg/mL. For ADAM17 the fluorogenic peptide Mca-PLAQAV-Dpa-RSSSR-NH2 (ES003, R & D systems, Minneapolis, MO, USA) and for neutrophil elastase the fluorogenic substrate MeOSuc-AAPV-AMC (cat. no. 324740, Merck Millipore, Darmstadt, Germany) were used. Proteolytic activity was determined by linear regression of the fluorescence curve and the percentage inhibition was calculated through comparison with the positive control (no inhibitors). When testing supernatants from human neutrophils, the assay was performed in the presence of 20 µM neutrophil elastase inhibitor (Elastase Inhibitor IV, Calbiochem, Darmstadt, Germany).

For another data set, the target named is T2, TACE/ADAM17 (Homo sapiens, UniProt P78536).
T2 construct: purchased R & D systems; host or cells: Sf 21 (baculovirus)
Briefly: TACE/ADAM17 fluorogenic peptide assay. Type of data set: biochemical. To be noted: Mca-PLAQAV-Dpa-RSSSR-NH2 fluorogenic peptide, tested up to an inhibitor concentration of 50 µM. As for the experimental part:
as §1, with “Active human neutrophil elastase (NE) was purchased from Abcam (Cambridge, UK) and for activity assays of NE the assay buffer was replaced by 200 mM Tris, pH 8.8.” left out, “Endotoxin levels in all concentrated stocks (2.5 mg/mL) were below the accepted limit of 0.5 EU/mL.” left out
To determine the inhibition of gelatinolytic activity, we used a previously optimized gelatin degradation assay. […] Next, dye-quenched gelatin (DQ™-gelatin, Invitrogen, Carlsbad, CA, USA) was added at a final concentration of 2.5 µg/mL and the increase in fluorescence over time was measured with the CLARIOstar microplate reader (BMG Labtech, Ortenberg, Germany). […] Proteolytic activity was determined by linear regression of the fluorescence curve and the percentage inhibition was calculated through comparison with the positive control (no inhibitors). […]

The next data set has as its system U-87 cell line. As to the kind of experiment: U-87 cell proliferation (confluence, Incucyte). Type of data set: cell-based. Conditions: up to a concentration of 20 µM; 17 h. As for the experimental part:
Toxicity of compounds 5 and 7 was evaluated in vitro on the U-87 cell line. Briefly, U-87 cells were seeded in 96-well plates (cat. No. 92096, TPP Techno Plastic Products, Trasadingen, Switzerland) at 2000 cells/well in DMEM FluoroBrite containing 10% FBS and incubated for 24 h. Cells were washed and further grown in DMEM FluoroBrite with 5% KnockOut™ Serum Replacement (Gibco, Waltham, MA, USA). Compounds 5 and 7 were added to the wells in a 1:2 dilution series starting at 20 µM and ending at 0.16 µM. To evaluate the effect of the compound on cell growth, confluence was determined every hour for 17h using the Incucyte® S3 Live-Cell Analysis System (Sartorius, Göttingen, Germany). Next, cells were stained with the LIVE/DEAD™ Viability/Cytotoxicity Kit for mammalian cells (Invitrogen, Carlsbad, CA, USA; cat. # L3224) and cell viability was evaluated. Data were normalized to the mean confluence of wells containing no inhibitors. To measure the stability of the compounds, fresh blood was collected from heathy mice by cardiac puncture with a heparin-coated needle and syringe and 30UI/mL heparin was added. Next, compound 5, compound 7 or vehicle (DMSO) was added to the blood at a final concentration of 500 µM and incubated at 37 °C. […] Background inhibition was subtracted and results were expressed as percentage inhibition.

The source of these data is article PMC7408547, “Bivalent Inhibitor with Selectivity for Trimeric MMP-9 Amplifies Neutrophil Chemotaxis and Enables Functional Studies on MMP-9 Proteoforms” (Cells, 2020).

Values joined by “and” are separate entries in the source; they are usually repeats but may differ in a detail not shown here. Equal values may be shown once.

T2 sequence (P78536 215-824): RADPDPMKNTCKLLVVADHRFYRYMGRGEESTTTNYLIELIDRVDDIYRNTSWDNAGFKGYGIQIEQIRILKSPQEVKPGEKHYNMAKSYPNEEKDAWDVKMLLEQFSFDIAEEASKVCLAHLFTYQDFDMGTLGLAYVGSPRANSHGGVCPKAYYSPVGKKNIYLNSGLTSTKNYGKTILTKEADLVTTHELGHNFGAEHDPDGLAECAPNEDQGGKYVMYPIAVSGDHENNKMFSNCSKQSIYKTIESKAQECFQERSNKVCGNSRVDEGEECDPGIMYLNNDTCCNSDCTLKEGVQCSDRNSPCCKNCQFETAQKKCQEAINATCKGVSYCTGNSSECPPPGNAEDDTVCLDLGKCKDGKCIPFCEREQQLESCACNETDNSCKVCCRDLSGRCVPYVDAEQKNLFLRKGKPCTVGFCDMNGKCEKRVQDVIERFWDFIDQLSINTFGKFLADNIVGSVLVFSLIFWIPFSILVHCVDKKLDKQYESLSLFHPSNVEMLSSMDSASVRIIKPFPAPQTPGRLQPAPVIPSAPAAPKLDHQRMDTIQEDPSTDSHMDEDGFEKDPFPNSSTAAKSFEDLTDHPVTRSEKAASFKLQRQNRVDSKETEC
T1 sequence (P14780 107-707 limits assumed): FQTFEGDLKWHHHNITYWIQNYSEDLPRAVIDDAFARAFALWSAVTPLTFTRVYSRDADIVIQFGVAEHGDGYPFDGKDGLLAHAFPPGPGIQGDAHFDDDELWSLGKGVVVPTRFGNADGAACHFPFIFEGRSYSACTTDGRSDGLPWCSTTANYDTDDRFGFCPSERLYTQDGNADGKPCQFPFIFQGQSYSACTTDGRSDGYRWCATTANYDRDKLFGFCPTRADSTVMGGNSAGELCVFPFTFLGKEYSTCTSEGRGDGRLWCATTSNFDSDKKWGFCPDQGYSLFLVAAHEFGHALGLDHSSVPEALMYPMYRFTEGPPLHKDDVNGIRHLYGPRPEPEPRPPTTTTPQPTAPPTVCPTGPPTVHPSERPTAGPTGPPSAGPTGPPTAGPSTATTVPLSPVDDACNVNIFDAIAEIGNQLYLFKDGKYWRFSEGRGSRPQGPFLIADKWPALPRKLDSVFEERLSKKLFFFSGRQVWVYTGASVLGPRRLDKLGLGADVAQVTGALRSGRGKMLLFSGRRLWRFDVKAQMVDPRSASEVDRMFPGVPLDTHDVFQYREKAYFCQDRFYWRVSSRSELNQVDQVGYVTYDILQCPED

The term IC25 denotes the concentration needed for an effect of 25%. Usually IC50 stands for the concentration that inhibits the measured activity by half. Usually IC75 stands for the concentration at which the effect reaches the 75% level. For `CC(C)[C@H](C(=O)O)N(CCNC(=O)c1ccccc1)S(=O)(=O)c1ccc(-c2ccccc2)cc1` [Compound 5], the IC25 in data set [1] is given as 237 nM. The IC50 in data set [1] was 724 nM; against TACE/ADAM17 it was “no inhibition ^†”; at TACE/ADAM17 (listed as compound 5), “not inhibited”. Moreover, the 75% effect concentration (IC75) in data set [1] came to 2211 nM. Further, in the data set with U-87 cell line, the “effect on proliferation of U-87 cells” value is “did not reduce proliferation”.

On to `CC(C)[C@H](C(=O)O)N(CCNC(=O)c1cccc(C(=O)NCCN([C@@H](C(=O)O)C(C)C)S(=O)(=O)c2ccc(-c3ccccc3)cc2)c1)S(=O)(=O)c1ccc(-c2ccccc2)cc1` [Compound 7], for which, in data set [1], the concentration for an effect of 25% (IC25) came out at 0.0017 nM; the IC50 is ~0.1 nM and 0.1 nM; the IC75 is 6.0 nM. At TACE/ADAM17, the concentration for half-maximal inhibition (IC50) entry is recorded as “no inhibition ^†”. Further, the IC50 result on TACE/ADAM17 (listed as compound 7) is listed as “not inhibited”. The “effect on proliferation of U-87 cells” value in the data set on U-87 cell line is on record as “did not reduce proliferation”.
